Test results reported in the NIST ThermoML archive (doi:10.1021/je060249h).
“And” between values parts separate entries of the source, which are not always exact repeats. Identical values can stand only once.

Conditions: Liquid

Clc1ccccc1 [chlorobenzene]
Conditions | vapor or sublimation pressure [kPa]
330.5 K | 7.92
337.4 K | 10.59

ClCc1nc2ccccc2o1 [2-(chloromethyl)-1,3-benzoxazole]
Ebulliometric method (Recirculating still)
Conditions | vapor or sublimation pressure
347.65 K | 0.08 kPa
357.1 K | 0.16 kPa
368.45 K | 0.32 kPa
375.15 K | 0.59 kPa
378.2 K | 0.69 kPa
383.2 K | 0.96 kPa
388.15 K | 1.39 kPa
393.5 K | 1.76 kPa
393.85 K | 1.87 kPa
395.6 K | 2.03 kPa
400.3 K | 2.72 kPa
405.25 K | 3.28 kPa
408.35 K | 4.19 kPa
411.9 K | 4.88 kPa
417.3 K | 6.32 kPa
418.1 K | 7.29 kPa
418.85 K | 7.91 kPa
418.9 K | 7.92 kPa
422.05 K | 9.41 kPa
423.2 K | 9.92 kPa and 10.59 kPa
424.2 K | 10.53 kPa
424.55 K | 10.8 kPa
